According to patent US20250145715A1, “B7-H3 TARGETING FUSION PROTEINS AND METHODS OF USE THEREOF” (GT Biopharma, Inc., priority 2021, published 2025):
“Also recorded” adds a separate entry of the source.

Columns and labels:
[1] = system: MA-148-luc ovarian cancer cells; assay: Xenogeneic ovarian cancer MA-148-Luc model; assay type: in vivo, NSG mice
Description: FIGS. 32A-32F illustrate that cam1615B7-H3 TriKE is efficacious in subduing ovarian tumor progression in vivo. FIG. 32A is a diagram showing xenogeneic ovarian cancer MA-148-Luc model in female NSG mice (N=5 per treatment group). FIG. 32B is a graph showing bioluminescent imaging indicative of tumor progression, measured as Total flux radiance (p/s), over three weeks in the MA148 mouse model treated with enriched NK cells and noted treatments. FIG. 32C is a graph illustrating bioluminescent imaging results on day 21 data point. FIG. 32D is a photograph illustrating total flux radiance (p/s) on day 21. FIG. 32E is a scatter plot of CD56+CD3− NK cell numbers from peritoneal lavages for the rhIL-15 and cam1615B7-H3 TriKE treatment groups at D21. FIG. 32F is a scatter plot of CD16 media fluorescence intensity on NK cells from peritoneal lavages for the rhIL-15 and cam1615B7-H3 TriKE treatment groups at day 21. * p<0.05, ** p<0.01.
MA-148-Luc ovarian cancer cells were incorporated into a previously described NK cell xenogeneic mouse model system. NSG mice (NOD.Cg-Prkdcscid Il2rgtm1Wjl/SzJ, n=5/group) were injected IP with 2.0×10^5 MA-148-luc cells and then three days later conditioned with low-dose total body irradiation (225 cGy). The following day, all groups received highly enriched NK cells (PBMC magnetically CD3 and CD19 depleted), equivalent to 1 million NK cells/mouse, and were started on the drug regimen. A single course of treatment consisted of an IP injection of […] of TriKE or 5 μg rhIL-15 given every day of the week (Monday-Friday) for three weeks. MA-148-luc cells are a subline of MA-148 that have been transfected with a luciferase reporter gene, allowing for imaging of the mice each week to determine their bioluminescent activity and to monitor tumor progression. Briefly, mice were injected with 100 μL of 30 mg/mL luciferin substrate 10 min prior to imaging and then anesthetized via inhalation of isoflurane gas (25). Mice were then imaged using the Xenogen Ivis 100 imaging system and analyzed with Living Image 2.5 software (Xenogen Corporation, Alameda, CA, USA). At the end of the experiment (day 21), all the animals were sacrificed, and postmortem peritoneal lavages were performed to analyze human NK cell content by flow cytometry. Animal imaging and analysis was performed at the University of Minnesota Imaging Center. Mouse studies were carried after approval (protocol 1908-37330A) from the Institutional Animal Care and Use Committee (IACUC) at the University of Minnesota and in compliance with their guidelines.
As illustrated in FIGS. 32A-32F, cam1615B7-H3 TriKE mediates anti-tumor activity in vivo. Determination of in vivo activity is a critical step for translation. However, prior to evaluating the ability of the cam1615B7-H3 TriKE to induce function against tumor the potential for toxicity was assessed. To do this NSG mice were irradiated, engrafted with 1 million NK cells, treated with nothing, IL-15, or cam1615B7-H3 for three weeks, and weights were tracked over the course of 90 days post initial treatment. […] This is not surprising given the low toxicity profile of IL-15 and the safety profile of B7-H3. […] In this model, human NK cells and human high grade serous MA-148-luc cells are injected into the peritoneal cavity of NSG mice.

[2] = system: T cells (CD56−CD3+); assay: T cell proliferation in PBMCs, CellTrace Violet dilution; assay type: cell-based, human; conditions: 7 days
Experimental: FIGS. 2A-2H illustrates that cam1615B7-H3 TriKE induces potent, and specific, natural killer (NK) cell proliferation. Peripheral blood mononuclear cells (PBMCs) were CellTrace Violet labeled and incubated for seven days at 5 nM equimolar concentrations of rhIL-15 or cam1615B7-H3 TriKE. On day 7, the cells were harvested and stained for flow cytometric evaluation. […] FIG. 2B is a graph illustrating pooled data showing the overall proportion of NK cells that proliferated. FIG. 2C is a graph illustrating pooled data showing the proportion of NK cells that highly proliferated (measured as proliferation beyond three divisions). FIG. 2D is a graph illustrating pooled data showing NK cell counts in the cultures (N=9). FIG. 2E is a representative histogram showing T cell (CD56− CD3+) proliferation. FIG. 2F is a graph illustrating pooled data showing the overall proportion of T cells proliferated. FIG. 2G is a graph illustrating pooled data showing the proportion of T cells highly proliferated. FIG. 2H is a graph illustrating pooled data showing T cell counts in the cultures (N=9). * p<0.05, ** p<0.01, *** p<0.001.
The wild-type IL-15 moiety in the cam1615B7-H3 TriKE was designed to induce targeted delivery of a proliferative signal to NK cells. To test this, proliferation assays evaluating dilution of a CellTrace dye over a 7-day period were carried out on PBMCs treated with no treatment (NT), monomeric rhIL-15 (IL15), or the TriKE (cam1615B7-H3). At the end of the seven days, cells were harvested and proliferation was evaluated by gating on CD56+CD3− cells. […] Since IL-15 acts on both NK cells and T cells, specificity was evaluated next by gating on T cells (CD56-CD3+).
To measure the ability of the TriKE to specifically induce NK cell expansion via the IL-15 moiety, PBMCs from healthy donors were labeled with CellTrace Violet Proliferation Dye (Invitrogen, Carlsbad, CA, USA) according to kit specifications. After staining, cells were cultured with TriKEs at noted concentrations, or equimolar concentrations of controls, and incubated in a humidified atmosphere containing 5% CO2 at 37° C. for seven days. Cells were harvested, stained for viability with Live/Dead reagent (Invitrogen, Carlsbad, CA, USA) and surface stained for anti-CD56 PE/Cy7 (Biolegend, San Diego, CA, USA) and anti-CD3 PE-CF594 (BD Biosciences, Franklin Lakes, NJ, USA) to gate on the viable CD56+ CD3− NK cell population or the CD56-CD3+ T cell population. Data analysis was performed using FlowJo software (FlowJo LCC, version 7.6.5, Ashland, OR, USA).

## cam1615B7-H3: second-generation TriKE: humanized camelid anti-CD16 VHH, human wild-type IL-15, anti-B7-H3 mAb 376.96 scFv; SEQ ID NO:1
[1]; IP 30 g of TriKE or 5 μg rhIL-15 Monday-Friday for three weeks, enriched NK cells, vs IL-15 treated or tumor only
  tumor progression (bioluminescence), longitudinal: lowest tumor progression
[1]; TriKE-treated vs IL-15-treated mice
  PD-1 expression: lower (but not significant) trend of expression
[1]; day 21, vs IL-15 treated mice
  CD16 expression on NK cells from peritoneal lavages: higher levels of CD16 expression than IL-15 treated mice
[1]; day 21, vs tumor only group
  tumor burden at day 21: significantly lower tumor burden than the tumor only group
[1]; treatment not curative within this model
  disease outcome of treated animals: stable disease
[2]; 5 nM equimolar, listed as cam1615B7-H3 TriKE
  overall T cell proliferation: Minimal T cell proliferation; also recorded: some induction of overall T cell proliferation
[2]; 5 nM, vs untreated
  T cell numbers in culture: did not differ between the untreated and TriKE-treated groups
  T cells robustly proliferating (past three divisions): significantly less proliferation than the untreated group
